# Measured values from PMC10967822, “Antimicrobial Indole-3-Carboxamido-Polyamine Conjugates Target Bacterial Membranes and Are Antibiotic Potentiators” (Biomolecules, 2024).
# Where two headings read alike, the source gives them in different places. Marks after values point to notes of the source that are not given here.
# What was measured:
# [1] = Cytotoxicity assay (resazurin); format: cell-based; settings: human, HEK293 cells, mean n = 2
# S. aureus ATCC 25923 = test: MIC, broth dilution, S. aureus; format: cell-based, Staphylococcus aureus; settings: Staphylococcus aureus, ATCC25923; S. aureus ATCC 25923, 18 h; read-out: MIC Sa
# human red blood cells = test: Hemolytic assay; format: cell-based; settings: 10% hemolytic activity, mean n = 2
# Protocol: Human whole blood was washed three times with three volumes of 0.9% NaCl and then resuspended in the same solution to a concentration of 0.5 × 10^8 cells/mL, as determined by the manual cell count in a Neubauer hemocytometer. The washed cells were then added to the 384-well compound-containing plates for a final volume of 50 μL. After a 10 min shake on a plate shaker, the plates were then incubated for 1 h at 37 °C. After incubation, the plates were centrifuged at 1000× g for 10 min to pellet cells and debris; 25 μL of the supernatant was then transferred to a polystyrene 384-well assay plate. Hemolysis was determined by measuring the supernatant absorbance at […] (OD405). The absorbance was measured using a Tecan M1000 Pro monochromator plate reader. HC10 and HC50 (concentrations at 10% and 50% hemolysis, respectively) were calculated by a curve fitting the inhibition values vs. log (concentration) using a sigmoidal dose–response function with variable fitting values for the top, bottom, and slope.
# [2] = test system: K. pneumoniae ATCC 700603; test: MIC, broth microdilution (CO-ADD), K. pneumoniae; settings: top dose 32 µg/mL
# P. aeruginosa ATCC 27853 [3] = test: Doxycycline potentiation against P. aeruginosa; format: cell-based, Pseudomonas aeruginosa; settings: doxycycline at 2 µg/mL (4.5 µM); for Dox/Pa fold-change (intrinsic MIC / combination MIC): P. aeruginosa ATCC 27853; for Dox/Pa: concentration required to restore doxycycline activity (combination MIC): P. aeruginosa ATCC 27853, mean n = 3
# Excerpt: (§1) These measurements were independently repeated in triplicate.
# MRSA ATCC 43300 = test: MIC, broth microdilution (CO-ADD), MRSA; format: cell-based, methicillin-resistant S. aureus; settings: Staphylococcus aureus, read-out: MIC MRSA
# A. baumannii ATCC 19606 = test: MIC, broth microdilution (CO-ADD), A. baumannii; format: cell-based, Acinetobacter baumannii
# P. aeruginosa ATCC 27853 [4] = test: MIC, broth dilution, P. aeruginosa; format: cell-based, Pseudomonas aeruginosa; settings: P. aeruginosa ATCC 27853, 18 h, read-out: MIC Pa
# E. coli ATCC 25922 [5] = test: MIC, broth dilution, E. coli; format: cell-based, Escherichia coli; settings: E. coli ATCC 25922, 18 h
# E. coli ATCC 25922 [6] = test: Erythromycin potentiation against E. coli; format: cell-based, Escherichia coli; settings: erythromycin at 2 µg/mL (2.7 µM); for Erythro/Ec fold-change (intrinsic MIC / combination MIC): E. coli; for Erythro/Ec: concentration required to restore erythromycin activity (combination MIC): mean n = 3
# Excerpt: as §1
# C. albicans ATCC 90028 = test: Antifungal MIC (CO-ADD), C. albicans; format: cell-based; settings: Candida albicans, ATCC90028, top dose 32 µg/mL
# Protocol: (§2) For the antifungal assay, fungi strains were cultured for 3 days on YPD agar at 30 °C. A yeast suspension of 1 × 10^6 to 5 × 10^6 CFU/mL was prepared from five colonies. These stock suspensions were diluted with a yeast nitrogen base (YNB) (Becton Dickinson, 233520, New South Wales, Australia) broth to a final concentration of 2.5 × 10^3 CFU/mL. […] The plates were covered and incubated at 35 °C for 36 h without shaking. C. albicans MICs were determined by measuring the absorbance at OD530. For C. neoformans, resazurin was added at a 0.006% final concentration to each well and incubated for a further 3 h before the MICs were determined by measuring the absorbance at OD570–600. […] Fluconazole was used as a positive fungal inhibitor standard for C. albicans and C. neoformans. […] The quality control (QC) of the assays was determined by the antimicrobial controls and the Z′-factor (using positive and negative controls).
# [7] = test system: C. neoformans ATCC 208821; test: Antifungal MIC (CO-ADD), C. neoformans; format: cell-based; settings: Cryptococcus neoformans, ATCC208821, top dose 32 µg/mL
# Protocol: as §2
# [8] = MRSA ATCC 43300, top dose 32 µg/mL
# [9] = Acinetobacter baumannii, ATCC19606, top dose 32 µg/mL
# [10] = Pseudomonas aeruginosa, ATCC27853
Compound,MIC (S. aureus ATCC 25923),MIC Kp [2],Dox/Pa fold-change (intrinsic MIC / combination MIC) (P. aeruginosa ATCC 27853 [3]),Dox/Pa: concentration required to restore doxycycline activity (combination MIC) (P. aeruginosa ATCC 27853 [3]),MIC (MRSA ATCC 43300; [8]),MIC (A. baumannii ATCC 19606; [9]),MIC (P. aeruginosa ATCC 27853 [4]; [10]),"MIC (E. coli ATCC 25922 [5]; Escherichia coli, ATCC25922)",Erythro/Ec fold-change (intrinsic MIC / combination MIC) (E. coli ATCC 25922 [6]),Erythro/Ec: concentration required to restore erythromycin activity (combination MIC) (E. coli ATCC 25922 [6]),MIC (C. albicans ATCC 90028),MIC [7],IC50 at 20 h [1],Hemolysis HC10 (human red blood cells),MIC (MRSA ATCC 43300),MIC (A. baumannii ATCC 19606; top dose 32 µg/mL),MIC (P. aeruginosa ATCC 27853 [4]),MIC (E. coli ATCC 25922 [5])
"CC/C(=C(\c1ccccc1)c1ccc(OCCN(C)C)cc1)c1ccccc1 [tamoxifen, reference compound]",–,–,–,–,–,–,–,–,–,–,–,–,24 µM,–,–,–,–,–
"O=C(N[C@H](CO)[C@H](O)c1ccc([N+](=O)[O-])cc1)C(Cl)Cl [Chloramphenicol, reference compound]",1.5 to 3 µM,–,–,–,–,–,–,–,–,–,–,–,–,–,–,–,–,–
"CN[C@H](CC(C)C)C(=O)N[C@H]1C(=O)N[C@@H](CC(N)=O)C(=O)N[C@H]2C(=O)N[C@H]3C(=O)N[C@H](C(=O)N[C@H](C(=O)O)c4cc(O)cc(O)c4-c4cc3ccc4O)[C@H](O)c3ccc(c(Cl)c3)Oc3cc2cc(c3O[C@@H]2O[C@H](CO)[C@@H](O)[C@H](O)[C@H]2O[C@H]2C[C@](C)(N)[C@H](O)[C@H](C)O2)Oc2ccc(cc2Cl)[C@H]1O [Vancomycin, reference compound]",–,–,–,–,–,–,–,–,–,–,–,–,–,–,0.7 µM,–,–,–
O=C(NCCCNCCCCNCCCNC(=O)c1c[nH]c2ccccc12)c1c[nH]c2ccccc12 [Compound 12a],69.8 µM,>45 ^j µM,> 8 fold,34.9 µM,22.3 µM,> 45 µM,> 279 µM,139 µM,4 fold,34.9 µM,> 45 µM,–,> 45 µM,>45 µM,–,–,–,–
"C[C@H]1c2cccc(O)c2C(=O)C2=C(O)[C@]3(O)C(=O)C(C(N)=O)=C(O)[C@@H](N(C)C)[C@@H]3[C@@H](O)[C@@H]21 [doxycycline, reference compound]",–,–,–,–,–,–,90 µM,–,–,–,–,–,–,–,–,–,–,–
O=C(NCCCNCCCCCCCCNCCCNC(=O)c1c[nH]c2ccccc12)c1c[nH]c2ccccc12.O=C(O)C(F)(F)F.O=C(O)C(F)(F)F [Compound 12d],64.7 µM,>41 µM,> 8 fold,32.3 µM,≤ 0.32 µM,> 41 µM,> 259 µM,32.4 µM,–,–,> 41 µM,≤ 0.32 µM,> 41 µM,>41 µM,–,–,–,–
"OC(Cn1cncn1)(Cn1cncn1)c1ccc(F)cc1F [Fluconazole, reference compound]",–,–,–,–,–,–,–,–,–,–,0.4 µM,26 µM,–,–,–,–,–,–
Colistin [reference compound],–,0.2 µM,–,–,–,–,–,–,–,–,–,–,–,–,–,0.2 µM,1 µM,2 µM
"[H]/N=C(/N)N[C@H]1[C@H](O)[C@@H](O)[C@H](O[C@@H]2O[C@@H](C)[C@](O)(C=O)[C@H]2O[C@@H]2O[C@@H](CO)[C@H](O)[C@@H](O)[C@@H]2NC)[C@@H](N/C(N)=N\[H])[C@@H]1O [Streptomycin, reference compound]",21.5 µM,–,–,–,–,–,21.5 µM,21.5 µM,–,–,–,–,–,–,–,–,–,–
"CC[C@H]1OC(=O)[C@H](C)[C@@H](O[C@H]2C[C@@](C)(OC)[C@@H](O)[C@H](C)O2)[C@H](C)[C@@H](O[C@@H]2O[C@H](C)C[C@H](N(C)C)[C@H]2O)[C@](C)(O)C[C@@H](C)C(=O)[C@H](C)[C@@H](O)[C@]1(C)O [erythromycin, reference compound]",–,–,–,–,–,–,–,174 µM,–,–,–,–,–,–,–,–,–,–

# Now from value to compound, other results behind:
MIC (S. aureus ATCC 25923),MIC Kp [2],Dox/Pa fold-change (intrinsic MIC / combination MIC) (P. aeruginosa ATCC 27853 [3]),Dox/Pa: concentration required to restore doxycycline activity (combination MIC) (P. aeruginosa ATCC 27853 [3]),MIC (MRSA ATCC 43300; [8]),MIC (A. baumannii ATCC 19606; [9]),MIC (P. aeruginosa ATCC 27853 [4]; [10]),"MIC (E. coli ATCC 25922 [5]; Escherichia coli, ATCC25922)",Erythro/Ec fold-change (intrinsic MIC / combination MIC) (E. coli ATCC 25922 [6]),Erythro/Ec: concentration required to restore erythromycin activity (combination MIC) (E. coli ATCC 25922 [6]),MIC (C. albicans ATCC 90028),MIC [7],Compound,IC50 at 20 h [1],Hemolysis HC10 (human red blood cells),MIC (MRSA ATCC 43300),MIC (A. baumannii ATCC 19606; top dose 32 µg/mL),MIC (P. aeruginosa ATCC 27853 [4]),MIC (E. coli ATCC 25922 [5])
257 µM,>41 µM,> 4 fold,64.4 µM,10.3 µM,> 41 µM,> 257 µM,257 µM,1 fold,257 µM,> 41 µM,–,COc1ccc2[nH]cc(C(=O)NCCCNCCCCNCCCNC(=O)c3c[nH]c4ccc(OC)cc34)c2c1 [Compound 14a],> 41 µM,>41 µM,–,–,–,–
122 µM,>39 µM,> 4 fold,61.1 µM,> 39 µM,> 39 µM,> 244 µM,> 244 µM,> 1 fold,244 µM,> 39 µM,–,COc1ccc2[nH]cc(C(=O)NCCCNCCCCCCCNCCCNC(=O)c3c[nH]c4ccc(OC)cc34)c2c1.O=C(O)C(F)(F)F.O=C(O)C(F)(F)F [Compound 14c],> 39 µM,>39 µM,–,–,–,–
> 266 µM,>43 µM,1 fold,266 µM,> 43 µM,> 43 µM,266 µM,> 266 µM,1 fold,> 266 µM,> 43 µM,–,O=C(NCCCNCCCCNCCCNC(=O)c1c[nH]c2c(F)cccc12)c1c[nH]c2c(F)cccc12 [Compound 16a],> 43 µM,>43 µM,–,–,–,–
> 269 µM,>43 µM,1 fold,269 µM,21.5 µM,> 43 µM,269 µM,> 269 µM,1 fold,> 269 µM,> 43 µM,–,Cc1cccc2c(C(=O)NCCCNCCCCNCCCNC(=O)c3c[nH]c4c(C)cccc34)c[nH]c12 [Compound 18a],> 43 µM,>43 µM,–,–,–,–
124 µM,>40 µM,1 fold,> 248 µM,> 40 µM,> 40 µM,> 248 µM,248 µM,1 fold,> 248 µM,> 40 µM,–,COc1cccc2c(C(=O)NCCCNCCCCCCNCCCNC(=O)c3c[nH]c4c(OC)cccc34)c[nH]c12 [Compound 17b],> 40 µM,>40 µM,–,–,–,–
256 µM,>41 µM,> 4 fold,64.0 µM,> 41 µM,> 41 µM,> 256 µM,256 µM,2 fold,128 µM,> 41 µM,–,O=C(NCCCNCCCCCCNCCCNC(=O)c1c[nH]c2c(F)cccc12)c1c[nH]c2c(F)cccc12 [Compound 16b],> 41 µM,>41 µM,–,–,–,–
129 µM,>41 µM,> 2 fold,129 µM,20.6 µM,> 41 µM,> 257 µM,> 257 µM,1 fold,> 257 µM,> 41 µM,–,COc1cccc2c(C(=O)NCCCNCCCCNCCCNC(=O)c3c[nH]c4c(OC)cccc34)c[nH]c12 [Compound 17a],> 41 µM,>41 µM,–,–,–,–
